Test system: T1, Lip5-DM (recombinant Lip5, CALip5)
T1 construct: putative 14-residue signal peptide removed; secreted from Pichia pastoris X-33 (pGAPZalphaA), about 50 kDa
Assay: p-nitrophenol release at […] nm, Lineweaver-Burk
Type: biochemical, Candida albicans
Conditions: 100 mM Na2HPO4-NaH2PO4 pH 6.0; kinetics run at 5, 15 and 25 °C, temperature of table values not stated

CCCCCCCCCCCCCCCC(=O)Oc1ccc([N+](=O)[O-])cc1 [C16, p-NP-palmitate] and CCCCCCCCCCCC(=O)Oc1ccc([N+](=O)[O-])cc1 [C12, p-NP-laurate] are within 1.5-fold of each other in Km: 360 µM for the first, 500 µM for the second.

Compared with CCCC(=O)Oc1ccc([N+](=O)[O-])cc1 [C4, p-NP-butyrate], CCCCCCCC(=O)Oc1ccc([N+](=O)[O-])cc1 [C8, p-NP-caprylate] is 1.5-fold lower in Km: 410 µM for the first, 270 µM for the second.
